Data taken from PMC11395469, “BpfD Is a c-di-GMP Effector Protein Playing a Key Role for Pellicle Biosynthesis in Shewanella oneidensis” (International Journal of Molecular Sciences, 2024).

Target: T1, BpfD (Shewanella oneidensis, UniProt Q8E9G0)
T1 construct: gene SO_4323; BpfDS, cytoplasmic part (S225 to E639) with degenerated GGDEF and EAL domains, Strep-tagged
T1 sequence (Q8E9G0 225-639): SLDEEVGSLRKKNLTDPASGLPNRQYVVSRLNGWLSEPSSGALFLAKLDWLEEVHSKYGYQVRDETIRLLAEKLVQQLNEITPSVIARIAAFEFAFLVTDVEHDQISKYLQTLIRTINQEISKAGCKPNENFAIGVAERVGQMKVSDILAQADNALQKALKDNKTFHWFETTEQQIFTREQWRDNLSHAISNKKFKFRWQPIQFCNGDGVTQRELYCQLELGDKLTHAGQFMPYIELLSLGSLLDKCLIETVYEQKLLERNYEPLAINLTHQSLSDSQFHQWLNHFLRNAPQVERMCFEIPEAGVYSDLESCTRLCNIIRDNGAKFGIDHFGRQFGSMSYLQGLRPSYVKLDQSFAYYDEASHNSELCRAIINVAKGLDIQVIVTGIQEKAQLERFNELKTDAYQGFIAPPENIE
Experiment: isothermal titration calorimetry with purified BpfDS; supported by thermal shift assays
Assay type: binding

## Nc1nc2c(ncn2[C@@H]2O[C@@H]3CO[P@](=O)(O)O[C@H]4[C@@H](O)[C@H](n5cnc6c(=O)[nH]c(N)nc65)O[C@@H]4CO[P@](=O)(O)O[C@H]3[C@H]2O)c(=O)[nH]1 [c-di-GMP]
  Kd: 4.38 ± 0.8 µM
